What was measured:
Assay in all cases: Test D controlled growth environment herbicide test, pre- and postemergence
Format in all cases: in vivo
[1] = system: barley, winter (winter barley, Hordeum vulgare)
Procedure, shortened: (§1)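 Pre-emergence: seeds sown in silt loam soil were sprayed with compound in a non-phytotoxic solvent mix containing surfactant. Post-emergence: plants at 2 to 18 cm (1- to 4-leaf stage) in peat moss/vermiculite medium got the same formulation. Visual 0–100 rating versus controls after 14 to 21 d.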

[2] = system: blackgrass (Alopecurus myosuroides)
Procedure, shortened: as §1

[3] = system: bromegrass, downy (downy bromegrass, Bromus tectorum); conditions: for Bromegrass, Downy plant response rating / Plant response rating (scale of 0 to 100), Bromegrass, Downy: 31 g ai/ha
Procedure, shortened: as §1

[4] = system: buckwheat, wild (wild buckwheat, Polygonum convolvulus); conditions: for Buckwheat, Wild plant response rating / Plant response rating (scale of 0 to 100), Buckwheat, Wild: 31 g ai/ha
Procedure, shortened: as §1

[5] = system: canarygrass (Phalaris minor)
Procedure, shortened: as §1

[6] = system: chamomile (scentless chamomile, Matricaria inodora)
Procedure, shortened: as §1

[7] = system: chickweed (common chickweed, Stellaria media)
Procedure, shortened: as §1

[8] = system: field poppy (Papaver rhoeas)
Procedure, shortened: as §1

[9] = system: galium (catchweed bedstraw, Galium aparine)
Procedure, shortened: as §1

[10] = system: lambsquarters (Chenopodium album)
Procedure, shortened: as §1

[11] = system: oilseed rape (Brassica napus)
Procedure, shortened: as §1

[12] = system: ryegrass, Italian (Italian ryegrass, Lolium multiflorum)
Procedure, shortened: as §1

[13] = system: speedwell (bird's-eye speedwell, Veronica persica)
Procedure, shortened: as §1

[14] = Postemergence, 31 g ai/ha, scale 0 to 100 (0 no effect, 100 complete control)
[15] = Postemergence, 125 g ai/ha, visual rating on scale 0 (no effect) to 100 (complete control), 14 to 21 d
[16] = Postemergence, 250 g ai/ha, scale 0 to 100 (0 no effect, 100 complete control)
[17] = Preemergence, 62 g ai/ha, scale 0 to 100 (0 no effect, 100 complete control)
[18] = Preemergence, 125 g ai/ha, scale 0 to 100 (0 no effect, 100 complete control)
[19] = Preemergence, 250 g ai/ha, scale 0 to 100 (0 no effect, 100 complete control)
[20] = postemergence, 62 g ai/ha, scale 0 to 100, 0 no effect, 100 complete control
[21] = Postemergence, scale 0 to 100 (0 no effect, 100 complete control)

CC(=O)Oc1c(C)nn(C)c(=O)c1-c1c(C)sc2ccc(C)cc12 [Compound 25]
20: Barley, Winter plant response rating [1, 19] | Plant response rating, Buckwheat, Wild [4, 18]
35: Plant response rating, Oilseed Rape [11, 19] | Plant response rating (scale of 0 to 100), Speedwell ([13]; Preemergence, 31 g ai/ha)
15: Plant response rating, Speedwell [13, 20]
0: Plant response rating, Barley, Winter [1, 14] | Plant response rating, Barley, Winter [1, 15] | Plant response rating (scale of 0 to 100), Barley, Winter ([1]; Preemergence, 31 g ai/ha) | Plant response rating, Barley, Winter [1, 17] | Plant response rating, Barley, Winter [1, 20] | Plant response rating (scale of 0 to 100), Buckwheat, Wild ([4]; Preemergence) | Plant response rating, Buckwheat, Wild [4, 17] | Plant response rating (scale of 0 to 100), Oilseed Rape ([11]; Preemergence, 31 g ai/ha) | Plant response rating, Oilseed Rape [11, 17] | Plant response rating, Oilseed Rape [11, 18]
30: Plant response rating, Oilseed Rape [11, 20]
60: Plant response rating, Oilseed Rape [11, 16]
45: Plant response rating, Oilseed Rape [11, 15]
50: Plant response rating, Bromegrass, Downy [3, 15]
85: Plant response rating (scale of 0 to 100), Blackgrass ([2]; Preemergence, 31 g ai/ha) | Plant response rating, Bromegrass, Downy [3, 19] | Plant response rating, Canarygrass [5, 16] | Plant response rating, Ryegrass, Italian [12, 15] | Plant response rating, Ryegrass, Italian [12, 20]
5: Plant response rating, Barley, Winter [1, 18] | Bromegrass, Downy plant response rating [3, 21] | Oilseed Rape plant response rating [11, 14]
80: Plant response rating, Blackgrass [2, 15] | Plant response rating, Blackgrass [2, 16] | Plant response rating, Bromegrass, Downy [3, 18] | Buckwheat, Wild plant response rating [4, 21] | Plant response rating, Canarygrass [5, 15] | Plant response rating (scale of 0 to 100), Canarygrass ([5]; Preemergence, 31 g ai/ha) | Plant response rating, Canarygrass [5, 17] | Plant response rating, Canarygrass [5, 20] | Plant response rating, Field Poppy [8, 20] | Plant response rating (scale of 0 to 100), Lambsquarters ([10]; Preemergence, 31 g ai/ha) | Plant response rating, Speedwell [13, 16] | Plant response rating, Speedwell [13, 17]
10: Plant response rating, Barley, Winter [1, 16] | Speedwell plant response rating [13, 14]
100: Plant response rating, Buckwheat, Wild [4, 15] | Plant response rating, Buckwheat, Wild [4, 16] | Plant response rating, Buckwheat, Wild [4, 20] | Plant response rating, Canarygrass [5, 19] | Plant response rating, Chamomile [6, 15] | Plant response rating, Chamomile [6, 16] | Plant response rating (scale of 0 to 100), Chamomile ([6]; Preemergence, 31 g ai/ha) | Plant response rating, Chamomile [6, 17] | Plant response rating, Chamomile [6, 18] | Plant response rating, Chickweed [7, 15] | Plant response rating, Chickweed [7, 16] | Plant response rating, Chickweed [7, 17] | Plant response rating, Chickweed [7, 18] | Plant response rating, Chickweed [7, 19] | Plant response rating, Field Poppy [8, 15] | Plant response rating, Field Poppy [8, 16] | Plant response rating, Field Poppy [8, 17] | Plant response rating, Field Poppy [8, 18] | Plant response rating, Field Poppy [8, 19] | Galium plant response rating [9, 14] | Plant response rating, Galium [9, 15] | Plant response rating, Galium [9, 16] | Plant response rating, Galium [9, 19] | Plant response rating, Galium [9, 20] | Plant response rating, Lambsquarters [10, 19] | Plant response rating, Ryegrass, Italian [12, 17] | Plant response rating, Ryegrass, Italian [12, 18] | Plant response rating, Ryegrass, Italian [12, 19] | Plant response rating, Speedwell [13, 19]
95: Blackgrass plant response rating [2, 19] | Plant response rating, Canarygrass [5, 18] | Plant response rating, Chamomile [6, 19] | Plant response rating, Chamomile [6, 20] | Plant response rating (scale of 0 to 100), Chickweed ([7]; Preemergence, 31 g ai/ha) | Plant response rating (scale of 0 to 100), Field Poppy ([8]; Preemergence, 31 g ai/ha) | Plant response rating, Galium [9, 18] | Plant response rating, Lambsquarters [10, 16] | Plant response rating, Lambsquarters [10, 17] | Plant response rating (scale of 0 to 100), Ryegrass, Italian ([12]; Preemergence, 31 g ai/ha) | Plant response rating, Speedwell [13, 18]
70: Canarygrass plant response rating [5, 14] | Field Poppy plant response rating [8, 14] | Plant response rating (scale of 0 to 100), Galium ([9]; Preemergence, 31 g ai/ha)
65: Blackgrass plant response rating [2, 14] | Plant response rating, Bromegrass, Downy [3, 16] | Plant response rating, Bromegrass, Downy [3, 17]
98: Chickweed plant response rating [7, 14] | Plant response rating, Chickweed [7, 20] | Plant response rating, Lambsquarters [10, 18]
90: Plant response rating, Blackgrass [2, 17] | Plant response rating, Blackgrass [2, 18] | Plant response rating, Galium [9, 17] | Lambsquarters plant response rating [10, 14] | Plant response rating, Lambsquarters [10, 15] | Plant response rating, Lambsquarters [10, 20] | Plant response rating, Ryegrass, Italian [12, 16]
75: Plant response rating, Blackgrass [2, 20] | Chamomile plant response rating [6, 14] | Ryegrass, Italian plant response rating [12, 14]
40: Plant response rating (scale of 0 to 100), Bromegrass, Downy ([3]; Preemergence)
25: Plant response rating, Bromegrass, Downy [3, 20] | Plant response rating, Buckwheat, Wild [4, 19] | Plant response rating, Speedwell [13, 15]

CC(=O)Oc1c(C)nn(C)c(=O)c1-c1c(C)cc(C)c2ccccc12 [Compound 153]
80: Plant response rating, Blackgrass [2, 16] | Plant response rating, Blackgrass [2, 17] | Plant response rating, Canarygrass [5, 15] | Chickweed plant response rating [7, 14] | Ryegrass, Italian plant response rating [12, 14]
0: Barley, Winter plant response rating [1, 14] | Plant response rating (scale of 0 to 100), Barley, Winter ([1]; Preemergence, 31 g ai/ha)
70: Plant response rating, Blackgrass [2, 20] | Plant response rating, Bromegrass, Downy [3, 16] | Chamomile plant response rating [6, 14] | Plant response rating (scale of 0 to 100), Lambsquarters ([10]; Preemergence, 31 g ai/ha) | Oilseed Rape plant response rating [11, 14]
35: Plant response rating, Bromegrass, Downy [3, 20]
98: Plant response rating (scale of 0 to 100), Chickweed ([7]; Preemergence, 31 g ai/ha) | Plant response rating, Galium [9, 19] | Plant response rating, Oilseed Rape [11, 16]
75: Plant response rating, Blackgrass [2, 15] | Plant response rating (scale of 0 to 100), Blackgrass ([2]; Preemergence, 31 g ai/ha) | Plant response rating (scale of 0 to 100), Bromegrass, Downy ([3]; Preemergence) | Plant response rating, Bromegrass, Downy [3, 17] | Canarygrass plant response rating [5, 14] | Plant response rating, Canarygrass [5, 20] | Field Poppy plant response rating [8, 14] | Lambsquarters plant response rating [10, 14] | Plant response rating, Lambsquarters [10, 16] | Plant response rating (scale of 0 to 100), Oilseed Rape ([11]; Preemergence, 31 g ai/ha) | Speedwell plant response rating [13, 14] | Plant response rating, Speedwell [13, 20]
85: Plant response rating, Blackgrass [2, 18] | Plant response rating, Bromegrass, Downy [3, 18] | Plant response rating, Buckwheat, Wild [4, 18] | Plant response rating, Buckwheat, Wild [4, 19] | Plant response rating, Canarygrass [5, 16] | Plant response rating (scale of 0 to 100), Canarygrass ([5]; Preemergence, 31 g ai/ha) | Plant response rating, Chickweed [7, 15] | Plant response rating, Chickweed [7, 20] | Plant response rating (scale of 0 to 100), Galium ([9]; Preemergence, 31 g ai/ha) | Plant response rating (scale of 0 to 100), Lambsquarters ([10]; Preemergence, 62 g ai/ha) | Plant response rating, Oilseed Rape [11, 15] | Plant response rating (scale of 0 to 100), Oilseed Rape ([11]; Preemergence, 62 g ai/ha) | Plant response rating, Oilseed Rape [11, 20]
90: Plant response rating (scale of 0 to 100), Canarygrass ([5]; Preemergence, 62 g ai/ha) | Plant response rating, Oilseed Rape [11, 18] | Plant response rating, Ryegrass, Italian [12, 15] | Plant response rating, Ryegrass, Italian [12, 16] | Plant response rating, Ryegrass, Italian [12, 20] | Plant response rating, Speedwell [13, 15]
65: Blackgrass plant response rating [2, 14] | Plant response rating, Bromegrass, Downy [3, 15] | Plant response rating, Lambsquarters [10, 15] | Plant response rating, Lambsquarters [10, 20]
95: Plant response rating, Blackgrass [2, 19] | Plant response rating, Bromegrass, Downy [3, 19] | Buckwheat, Wild plant response rating [4, 21] | Plant response rating, Buckwheat, Wild [4, 20] | Plant response rating, Canarygrass [5, 18] | Plant response rating, Chamomile [6, 20] | Plant response rating, Field Poppy [8, 20] | Plant response rating (scale of 0 to 100), Galium ([9]; Preemergence, 62 g ai/ha) | Plant response rating, Galium [9, 18]
5: Plant response rating, Barley, Winter [1, 20]
60: Plant response rating, Buckwheat, Wild [4, 17]
25: Plant response rating, Barley, Winter [1, 16] | Plant response rating, Barley, Winter [1, 18] | Bromegrass, Downy plant response rating [3, 21]
10: Plant response rating, Barley, Winter [1, 15] | Plant response rating, Barley, Winter [1, 17]
40: Plant response rating, Barley, Winter [1, 19] | Plant response rating (scale of 0 to 100), Buckwheat, Wild ([4]; Preemergence)
100: Plant response rating, Buckwheat, Wild [4, 15] | Plant response rating, Buckwheat, Wild [4, 16] | Plant response rating, Canarygrass [5, 19] | Plant response rating, Chamomile [6, 15] | Plant response rating, Chamomile [6, 16] | Plant response rating (scale of 0 to 100), Chamomile ([6]; Preemergence, 31 g ai/ha) | Plant response rating (scale of 0 to 100), Chamomile ([6]; Preemergence, 62 g ai/ha) | Plant response rating, Chamomile [6, 18] | Plant response rating, Chamomile [6, 19] | Plant response rating, Chickweed [7, 16] | Plant response rating (scale of 0 to 100), Chickweed ([7]; Preemergence, 62 g ai/ha) | Plant response rating, Chickweed [7, 18] | Plant response rating, Chickweed [7, 19] | Plant response rating, Field Poppy [8, 15] | Plant response rating, Field Poppy [8, 16] | Plant response rating (scale of 0 to 100), Field Poppy ([8]; Preemergence, 31 g ai/ha) | Plant response rating (scale of 0 to 100), Field Poppy ([8]; Preemergence, 62 g ai/ha) | Plant response rating, Field Poppy [8, 18] | Plant response rating, Field Poppy [8, 19] | Galium plant response rating [9, 14] | Plant response rating, Galium [9, 15] | Plant response rating, Galium [9, 16] | Plant response rating, Galium [9, 20] | Plant response rating, Lambsquarters [10, 18] | Plant response rating, Lambsquarters [10, 19] | Plant response rating, Oilseed Rape [11, 19] | Plant response rating (scale of 0 to 100), Ryegrass, Italian ([12]; Preemergence, 31 g ai/ha) | Plant response rating (scale of 0 to 100), Ryegrass, Italian ([12]; Preemergence, 62 g ai/ha) | Plant response rating, Ryegrass, Italian [12, 18] | Plant response rating, Ryegrass, Italian [12, 19] | Plant response rating, Speedwell [13, 16] | Plant response rating (scale of 0 to 100), Speedwell ([13]; Preemergence, 31 g ai/ha) | Plant response rating (scale of 0 to 100), Speedwell ([13]; Preemergence, 62 g ai/ha) | Plant response rating, Speedwell [13, 18] | Plant response rating, Speedwell [13, 19]

Source: patent US10597388B2, “Pyridazinone herbicides” (FMC CORPORATION, priority 2014, dated 2020)
